Data reported in patent US11766447B2, “3′3′-cyclic dinucleotide analogue comprising a cyclopentanyl modified nucleotide as sting modulator” (INSTITUTE OF ORGANIC CHEMISTRY AND BIOCHEMISTRY ASCR, V.V.I., priority 2019, dated 2023).
Like-named read-outs stand apart in the source and are kept apart here. Blank lines part the entries; values can stand above or below the molecule they belong to.

Assays:
WT STING [1] = biological target: T1, WT STING (Homo sapiens, UniProt Q86WV6, H232R); experiment: Differential scanning fluorimetry (DSF) with WT STING; type: binding; parameters: 8xHis (N, cleaved yes); SUMO (N, cleaved yes); made in house; host or cells: E. coli Rosetta-gami B (DE3); conditions: thermal shift vs apoprotein; 150 μM CDN; truncated human WT STING 0.1 mg/ml
Method in brief: (§1)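 […] STING proteins, alone or with CDNs, in triplicate, thermally denatured on a real-time PCR cycler. Denaturing temperatures taken from first-derivative curves; shift = mean Tm of STING–CDN complex minus mean Tm of apoprotein.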
Target sequence in this assay (Q86WV6 140-343 H232R): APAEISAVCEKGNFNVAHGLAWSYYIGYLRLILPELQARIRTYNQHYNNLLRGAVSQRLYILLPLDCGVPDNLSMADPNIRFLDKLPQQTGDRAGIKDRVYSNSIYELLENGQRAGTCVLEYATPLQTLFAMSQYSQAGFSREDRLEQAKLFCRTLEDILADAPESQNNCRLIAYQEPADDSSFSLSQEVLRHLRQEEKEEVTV

AQ STING (G230A-R293Q) = biological target: T2, AQ STING (G230A-R293Q) (Homo sapiens, UniProt Q86WV6, G230A/H232R/R293Q); experiment: Differential scanning fluorimetry (DSF) with AQ STING; type: binding; conditions: thermal shift vs apoprotein; 150 μM CDN; truncated human AQ STING 0.1 mg/ml
T2 construct: 8xHis (N, cleaved yes); SUMO (N, cleaved yes); made in house; host or cells: E. coli Rosetta-gami B (DE3)
Method in brief: as §1

WT STING [2] = biological target: T1, WT STING; experiment: Digitonin assay using 293T wtSTING-FL reporter cells; type: cell-based; parameters: host or cells: 293T (ATCC CRL-3216), stably transfected, with 4xISRE firefly luciferase reporter; conditions: 293T wtSTING-FL cells, ISRE firefly luciferase; compounds in Digitonin buffer 30 minutes, then 5 hours; 8-point curve
Target sequence in this assay (Q86WV6 whole entry H232R, the tested form may be a part): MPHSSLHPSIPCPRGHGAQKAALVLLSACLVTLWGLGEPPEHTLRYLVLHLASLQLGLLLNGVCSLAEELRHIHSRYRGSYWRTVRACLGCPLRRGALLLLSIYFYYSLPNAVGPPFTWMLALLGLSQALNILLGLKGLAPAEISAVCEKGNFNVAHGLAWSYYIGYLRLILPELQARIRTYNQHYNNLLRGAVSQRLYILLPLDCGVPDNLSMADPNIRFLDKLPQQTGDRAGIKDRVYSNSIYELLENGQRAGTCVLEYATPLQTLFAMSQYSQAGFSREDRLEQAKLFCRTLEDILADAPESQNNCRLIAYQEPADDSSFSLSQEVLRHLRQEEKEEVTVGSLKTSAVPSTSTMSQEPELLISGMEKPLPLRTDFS

WT STING [3] = biological target: T1, WT STING; experiment: 293T WT STING standard reporter assay; type: cell-based; parameters: host or cells: 293T (ATCC CRL-3216), stably transfected, with 4xISRE firefly luciferase reporter; conditions: 293T wtSTING-FL cells, ISRE firefly luciferase; no digitonin; 7 hours with compounds; 8-point curve
Description: Two complementary oligonucleotides of the sequence […] […] […] […] […] The oligonucleotides were mixed in equal molar amounts, hybridized, and cleaved by restriction endonucleases HindIII (cat. #. R0104S, NEB, Ipswich, USA) and BglII (cat. #R0144S, NEB, Ipswich, USA). Ultimately, they were ligated into plasmid pGL4.27 (cat. #E6651, Promega, Madison, USA) linearized with the same enzymes. As result the sequence with four ISRE sites was placed upstream of the minimum promoter of firefly luciferase reporter gene.
After 5 minutes incubation at room temperature (RT), 250 μL of the mixture was added dropwise to the cells in one well. Cells were incubated 36 hours at 37° C. with 5% CO2, and then detached with 0.05% Trypsin and 0.22 g/L EDTA (both cat. #L0941, Biowest, Riverside, USA).
Transfected cells were seeded onto poly-D-lysine coated six well plates at density 50,000 cells per 1 cm^2 in DMEM medium with high glucose containing 10% heat inactivated FBS, 30 μg/mL blasticidin (cat. #ant-b1-05, InvivoGen, San Diego, USA), 0.06 mg/ml Penicillin G and 0.1 mg/ml Streptomycin Sulfate (both cat. #. L0018, Biowest, Riverside, USA). The medium was replenished every 3-4 days until visible colonies of cells resistant to blasticidin were formed.
Blasticidin resistant cells stably expressing WT STING were further transfected with […] plasmid following the same procedure as described above. […] Homogeneous culture of stably double transfected cells was prepared by limiting dilution of cells in 96 well plates and wells with cells were selected that originated from a single cell.
The medium was removed next day and three-fold serial dilutions of compounds in 100 μl medium were added to the cells. The plates with cells were incubated for 7 hours at 37° C. with 5% CO2. After 50 μl of the medium was removed, 30 μl of ONE-Glo™ Luciferase Assay System reagent (cat. #E6120, Promega, Madison, USA) was added to each well and luminescence was read on Synergy H1 (Biotek, Winooski, USA).
Target sequence in this assay (Q86WV6 whole entry H232R, the tested form may be a part): as above

[4] = system: peripheral blood mononuclear cells (PBMC); experiment: Peripheral blood mononuclear cell (PBMC) assay; type: cell-based; conditions: 1 h with compounds, washed, 15 hour incubation, average of one to four donors
Description: Selected compounds were tested in an in vitro peripheral blood mononuclear cell (PBMC) assay. […] Serially diluted tested compounds were added to wells in 50 μl of cultivation medium and cell were incubated with compounds for 1 h at 37° C. with 5% CO2. Plates with cells were then spun 500 g for 5 minutes and medium was removed. Cells were washed twice with the cell culture medium by the use of centrifugation and gently resuspended in 100 μl medium without compounds. After 15 hour incubation at 37° C. with 5% CO2, the cell culture medium was collected and the levels of interferon-alpha (INF-α), interferon-gamma (INF-γ) and tumor necrosis factor-alpha (TNF-α) were determined with ProcartaPlex Assays (ThermoFisher, Waltham, USA) and MAGPIX System (Merck KGaA, Darmstadt, Germany). […] Values reported are an average of runs from one to four donors.

[5] = interferon-alpha level, read-out: PBMC EC50 (μM) IFN-α
[6] = interferon-gamma level, read-out: PBMC EC50 (μM) IFN-γ
[7] = tumor necrosis factor-alpha level, read-out: PBMC EC50 (μM) TNF-α
[8] = PBMC, interferon-gamma level, read-out: PBMC EC50 (μM) IFN-γ
[9] = PBMC, tumor necrosis factor-alpha level, read-out: PBMC EC50 (μM) TNF-α
[10] = PBMC, interferon-alpha level, read-out: PBMC EC50 (μM) IFN-α

T2 sequence (Q86WV6 140-343 G230A/H232R/R293Q): as the sequence (Q86WV6 140-343 H232R) above, with G91A, R154Q counted along it

SMILES: Nc1ncnc2c1ncn2[C@@H]1C[C@@H]2COP(=O)(S)OC3C[C@H](n4cnc5c(N)ncnc54)O[C@@H]3COP(=O)(S)OC2C1F (single isomer, unassigned) [Compound 142b]
EC50 (WT STING [2]): 20 nM
EC50 (WT STING [3]): 500 nM

SMILES: CCCCCCCC(=O)OCOP1(=O)OC[C@H]2O[C@@H](n3cnc4c(N)ncnc43)[C@H](F)[C@@H]2OP(=O)(OCOC(=O)CCCCCCC)OC[C@H]2C[C@@H](n3cnc4c(N)ncnc43)[C@H](F)[C@@H]2O1 (single isomer, unassigned) [Compound 146c]
EC50 (WT STING [3]): 1 nM
EC50 [4, 5]: 0.02 µM
EC50 [4, 6]: 0.02 µM
EC50 [4, 7]: 0.01 µM

SMILES: Nc1nc2c(ncn2[C@@H]2O[C@@H]3COP(=O)(O)O[C@@H]4[C@H](O)[C@@H](COP(=O)(O)O[C@@H]2[C@@H]3O)O[C@H]4n2cnc3c(N)ncnc32)c(=O)[nH]1 [2′2′-cGAMP, reference compound]
DSF ΔTm (° C.) WT STING (WT STING [1]): 11.5 °C
DSF ΔTm (° C.) AQ STING (AQ STING (G230A-R293Q)): 19.4 °C
EC50 (WT STING [2]): 30 nM
EC50 (WT STING [3]): 10200 nM

SMILES: Nc1nc2c(ncn2[C@@H]2O[C@@H]3COP(=O)(S)OC4C(F)[C@H](n5cnc6c(N)ncnc65)C[C@@H]4COP(=O)(S)OC3C2F)c(=O)[nH]1 (stereo partly drawn) [Compound 132b, (1R,6R,8R,9R,10R,15R,17R,18S)-8-(2-amino-6-oxo-6,9-dihydro-1H-purin-9-yl)-17-(6-amino-9H-purin-9-yl)-9,18-difluoro-3,12-disulfanyl-2,4,7,11,13-pentaoxa-3λ^5,12λ^5-diphosphatricyclo[13.3.0.0^6,10]octadecane-3,12-dione]
ΔTm at 150 µM (WT STING [1]): 18.6 °C
ΔTm at 150 µM (AQ STING (G230A-R293Q)): 26.1 °C
EC50 (WT STING [2]): 10 nM
EC50 (WT STING [3]): 200 nM

SMILES: CC(C)(C)C(=O)OCOP1(=O)OC[C@H]2O[C@@H](n3cnc4c(N)ncnc43)CC2OP(=O)(OCOC(=O)C(C)(C)C)OC[C@H]2C[C@@H](n3cnc4c(N)ncnc43)C(F)C2O1 (stereo partly drawn) [Compound 139a, (((2R,3aS,7aR,9R,10S,10aR,14aR)-2,9-bis(6-amino-9H-purin-9-yl)-10-fluoro-5,12-dioxidodecahydro-2H-cyclopenta[d]furo[3,2-j][1,3,7,9]tetraoxa[2,8]di-phosphacyclododecine-5,12-diyl)bis(oxy))bis(methylene) bis(2,2-dimethylpropanoate)]
EC50 (WT STING [3]): 3 nM
EC50 [4, 8]: 0.1 µM
EC50 [4, 9]: 0.1 µM

SMILES: CC(C)(C)C(=O)OCOP1(=O)OC[C@H]2O[C@@H](n3cnc4c(N)ncnc43)CC2OP(=O)(OCOC(=O)C(C)(C)C)OC[C@H]2C[C@@H](n3cnc4c(N)ncnc43)C(F)C2O1 (stereo partly drawn) [Compound 139b, (((2R,3aS,7aR,9R,10S,10aR,14aR)-2,9-bis(6-amino-9H-purin-9-yl)-10-fluoro-5,12-dioxidodecahydro-2H-cyclopenta[d]furo[3,2-j][1,3,7,9]tetraoxa[2,8]di-phosphacyclododecine-5,12-diyl)bis(oxy))bis(methylene) bis(2,2-dimethylpropanoate)]
EC50 (WT STING [3]): 1 nM
EC50 [4, 5]: 0.3 µM
EC50 [4, 6]: 0.1 µM
EC50 [4, 7]: 0.1 µM

SMILES: CC(C)OC(=O)OCOP1(=O)OC[C@H]2O[C@@H](n3cnc4c(N)ncnc43)C(F)C2OP(=O)(OCOC(=O)OC(C)C)OC[C@H]2C[C@@H](n3cnc4c(N)ncnc43)C(F)C2O1 (stereo partly drawn) [Compound 143b, {[(1R,6R,8R,9R,10R,15R,17R,18S)-8,17-bis(6-amino-9H-purin-9-yl)-9,18-difluoro-3,12-dioxo-3-({[(propan-2-yloxy)carbonyl]oxy}methoxy)-2,4,7,11,13-pentaoxa-3λ^5,12λ^5-diphosphatricyclo[13.3.0.0^6,10]octadecan-12-yl]oxy}methyl propan-2-yl carbonate]
EC50 (WT STING [3]): 5 nM
EC50 [4, 10]: 0.3 µM
EC50 [4, 8]: 0.15 µM
EC50 [4, 9]: 0.3 µM

SMILES: CCC(C)(C)C(=O)OCOP1(=O)OC[C@H]2O[C@@H](n3cnc4c(N)ncnc43)C(F)C2OP(=O)(OCOC(=O)C(C)(C)CC)OC[C@H]2C[C@@H](n3cnc4c(N)ncnc43)C(F)C2O1 (stereo partly drawn) [Compound 144b, {[(1R,6R,8R,9R,10R,15R,17R,18S)-8,17-bis(6-amino-9H-purin-9-yl)-3-{[(2,2-dimethylbutanoy)oxy]methoxy}-9,18-difluoro-3,12-dioxo-2,4,7,11,13-pentaoxa-3λ^5,12λ^5-diphosphatricyclo[13.3.0.0^6,10]octadecan-12-yl]oxy}methyl 2,2-dimethylbutanoate]
EC50 (WT STING [3]): 1 nM
EC50 [4, 10]: 0.04 µM
EC50 [4, 8]: 0.05 µM
EC50 [4, 9]: 0.02 µM

SMILES: CC1(C(=O)OCOP2(=O)OC[C@H]3O[C@@H](n4cnc5c(N)ncnc54)C(F)C3OP(=O)(OCOC(=O)C3(C)CCCCC3)OC[C@H]3C[C@@H](n4cnc5c(N)ncnc54)C(F)C3O2)CCCCC1 (stereo partly drawn) [Compound 145c]
EC50 (WT STING [3]): 6 nM
EC50 [4, 10]: 0.04 µM
EC50 [4, 8]: 0.01 µM
EC50 [4, 9]: 0.02 µM

The next lines start with the values.

ΔTm at 150 µM (WT STING [1]): 6.7 °C
ΔTm at 150 µM (AQ STING (G230A-R293Q)): 11.2 °C
EC50 (WT STING [2]): 110 nM
EC50 (WT STING [3]): 1800 nM
SMILES: Nc1ncnc2c1ncn2[C@@H]1C[C@@H]2COP(=O)(S)OC3C(F)[C@H](n4cnc5c(N)ncnc54)O[C@@H]3COP(=O)(S)OC2C1F (single isomer, unassigned) [Compound 102a]

DSF ΔTm (° C.) WT STING (WT STING [1]): 11.9 °C
DSF ΔTm (° C.) AQ STING (AQ STING (G230A-R293Q)): 16.9 °C
EC50 (WT STING [2]): 5 nM
EC50 (WT STING [3]): 700 nM
SMILES: Nc1ncnc2c1ncn2[C@@H]1C[C@@H]2COP(=O)(S)OC3C(F)[C@H](n4cnc5c(N)ncnc54)O[C@@H]3COP(=O)(S)OC2C1F (single isomer, unassigned) [Compound 102b]

EC50 (WT STING [2]): 10 nM
EC50 (WT STING [3]): 400 nM
SMILES: Nc1ncnc2c1ncn2[C@@H]1C[C@@H]2COP(=O)(S)OC3C(F)[C@H](n4cnc5c(N)ncnc54)O[C@@H]3COP(=O)(S)OC2C1F (single isomer, unassigned) [Compound 102d]

ΔTm at 150 µM (WT STING [1]): 14.7 °C
ΔTm at 150 µM (AQ STING (G230A-R293Q)): 20.7 °C
EC50 (WT STING [2]): 10 nM
EC50 (WT STING [3]): 1000 nM
SMILES: Nc1ncnc2c1ncn2[C@@H]1C[C@@H]2COP(=O)(O)O[C@H]3[C@@H](F)[C@H](n4cnc5c(N)ncnc54)O[C@@H]3COP(=O)(S)O[C@H]2[C@H]1F (single isomer, unassigned) [Compound 130a]

DSF ΔTm (° C.) WT STING (WT STING [1]): 13.6 °C
DSF ΔTm (° C.) AQ STING (AQ STING (G230A-R293Q)): 20.3 °C
EC50 (WT STING [2]): 10 nM
EC50 (WT STING [3]): 1200 nM
SMILES: Nc1ncnc2c1ncn2[C@@H]1C[C@@H]2COP(=O)(O)O[C@H]3[C@@H](F)[C@H](n4cnc5c(N)ncnc54)O[C@@H]3COP(=O)(S)O[C@H]2[C@H]1F (single isomer, unassigned) [Compound 130b]
